The text below walks through data of ChEMBL document CHEMBL4130409, “Gordonic Acid, a Polyketide Glycoside Derived from Bacterial Coculture of Streptomyces and Gordonia Species” (J Nat Prod, 2017).

One data set concerns Streptomyces tendae. Nature of the data set: Growth inhibition of Streptomyces tendae KMC006 after 18 to 36 hrs by agar diffusion method. It is filed as organism-based. The settings on record: in vivo. (In agar diffusion tests the substance spreads into inoculated agar from a disc or well.)
A further data set deals with Gordonia sp. The experiment in a line: Growth inhibition of Gordonia sp. KMC005 after 18 to 36 hrs by agar diffusion method.
In another data set the test system is Micrococcus luteus. Nature of the data set: Antibacterial activity against Micrococcus luteus KCCM 11548 assessed as zone of inhibition at 10 microg/disk after 18 to 36 hrs by agar diffusion method. The class given is functional. The settings on record: read-out: DIZ.
The subject of a further data set is Enterococcus hirae. Nature of the data set: Antibacterial activity against Enterococcus hirae KCCM 11768 assessed as zone of inhibition at 10 microg/disk after 18 to 36 hrs by agar diffusion method. The class given is functional. The settings on record: read-out: DIZ.

For `CC(/C=C/C=C/C=C/C=C/C(O)=C1\C(=O)[C@H](CCC(=O)O)N(C)C1=O)=C\[C@@H](C)[C@@H](O[C@H]1C[C@H](O)[C@H](O)[C@@H](C)O1)C(C)C`, the Activity entry with Streptomyces tendae and with Gordonia sp. was “Non-Toxic” in each case.

`CC(/C=C/C=C/C=C/C=C/C(=O)O)=C\[C@@H](C)[C@@H](O[C@H]1C[C@H](O)[C@H](O)[C@@H](C)O1)C(C)C`: the Activity result in the data set with Streptomyces tendae and in the data set with Gordonia sp. was “Non-Toxic” throughout. The zone of inhibition at 10 µg/disc in the data set on Micrococcus luteus worked out at 2.5 mm; with Enterococcus hirae, 1.5 mm.

As to `CC1(C)S[C@@H]2[C@H](NC(=O)[C@H](N)c3ccccc3)C(=O)N2[C@H]1C(=O)O` [AMPICILLIN], the zone of inhibition at 10 µg/disc in the data set with Micrococcus luteus is 10 mm; in the data set on Enterococcus hirae it was 8 mm.
